Assay results reported in PubChem BioAssay (NCI).
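Dose response: 5 concentrations. Exposure: 48 h. Format: 96-well plates. Endpoint: linear interpolation; highest concentration if not reached. Definition used: TGI = concentration required for complete inhibition of growth.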

These compounds were tested on SF-268 CNS (assay: NCI anticancer screen, dose series, 48 h).

SMILES | TGI [µM]
O=C(NCCNCCNC(=O)c1cc(-c2ccccc2)nc2ccccc12)c1cc(-c2ccccc2)nc2ccccc12 | 9.55
COc1cc2cc(C(=O)N3CC(CCl)c4ccc([N+](C)(C)Cc5ccccc5[N+](=O)[O-])cc43)[nH]c2c(OC)c1OC (stereo unspecified) | 9.1
CC(Cn1c2c(c3cc(O)ccc31)CCc1ccc(O)cc1-2)N(C)C (stereo unspecified) | 53.2
CC1=NN(c2nc(N)nc(/C(C#N)=C\c3ccc(-c4ccc([N+](=O)[O-])cc4)o3)n2)C(C)(C)C1 | > 100
CCOC(=O)c1nc2ccc(C(F)(F)F)cc2nc1Nc1ccc(OC)cc1 | > 100
COc1ccc2nc3ccc(OC)cc3c(SCCCl)c2c1 | > 100
CC(=O)[C@H]1[C@H](O)C[C@@]2(C)[C@@H]3CCc4cc(O)c(OC5OC(CO)C(O)C(O)C5O)cc4C3(C)C(=O)C[C@]12C (stereo partly specified) | > 100
CC(C)(O)c1cc2c(cc1C(C)(C)O)-c1ccccc1-2 | > 100
CC(C)[Si]1(C(C)C)OCC2OC(n3ccc(=O)[nH]c3=O)C([Se]c3ccccc3)C2O[Si](C(C)C)(C(C)C)O1 (stereo unspecified) | 10.3
CN(N=O)c1nc2c(C(N)=O)ncn2s1 | > 100
CCOc1ccc(NC(=O)C(=O)Nn2c(N)nnc2N)cc1 | > 100
CC(C)(C)OC(=O)N1CCCC1C(=O)NC(c1ccccc1)c1ccccc1 (stereo unspecified) | > 100
O=C(NCCN1CCCCC1)c1cccc(I)c1 | > 100
COC(=O)[C@@](NC(=O)OCc1ccccc1)([C@H](C)O)C(F)(F)F | > 100
Cc1[nH]c(-c2ccccc2)c2nc(N(C)C)oc(=O)c12 | > 100
CC(C)(C)O/N=C/c1cc(NC(=S)c2ccsc2)ccc1Cl | 38.2
O=C1Cc2cn[nH]c2-c2ccccc2N1 | > 100
O=CNc1ccccc1OCCOc1ccccc1NC=O | > 100
C=CCN1CCC(c2cc(C(=O)OCC)[nH]c2-c2cc(C)no2)C1=O (stereo unspecified) | > 100
Cc1cc(NS(=O)(=O)c2ccc(N=[N+]([O-])c3ccc(S(=O)(=O)Nc4cc(C)on4)cc3)cc2)no1 | > 100
Cc1c(/C=N/NC(=S)N2CCCCC2)c(=O)n(-c2ccccc2)n1C | > 100
COc1ccc(-c2nc(Nc3ccccc3)sc2Cc2sc(Nc3ccccc3)nc2-c2ccc(OC)cc2)cc1 | > 100
Cc1ccc(S(=O)(=O)N2CCNCCN(S(=O)(=O)c3ccc(C)cc3)CCNCC2)cc1 | 55
Cc1sc2nc3n(c(=O)c2c1C)N=CN(c1ccc(Cl)cc1)C3 | > 100

The compounds below were run on A498 renal (assay: NCI anticancer screen, dose series, 48 h).

SMILES | TGI [µM]
O=C(NCCNCCNC(=O)c1cc(-c2ccccc2)nc2ccccc12)c1cc(-c2ccccc2)nc2ccccc12 | 6.54
COc1cc2cc(C(=O)N3CC(CCl)c4ccc([N+](C)(C)Cc5ccccc5[N+](=O)[O-])cc43)[nH]c2c(OC)c1OC (stereo unspecified) | 1.37
CC(Cn1c2c(c3cc(O)ccc31)CCc1ccc(O)cc1-2)N(C)C (stereo unspecified) | 53.7
CC1=NN(c2nc(N)nc(/C(C#N)=C\c3ccc(-c4ccc([N+](=O)[O-])cc4)o3)n2)C(C)(C)C1 | > 100
CCOC(=O)c1nc2ccc(C(F)(F)F)cc2nc1Nc1ccc(OC)cc1 | > 100
COc1ccc2nc3ccc(OC)cc3c(SCCCl)c2c1 | > 91.5
CC(=O)[C@H]1[C@H](O)C[C@@]2(C)[C@@H]3CCc4cc(O)c(OC5OC(CO)C(O)C(O)C5O)cc4C3(C)C(=O)C[C@]12C (stereo partly specified) | > 100
CC(C)(O)c1cc2c(cc1C(C)(C)O)-c1ccccc1-2 | > 100
CC(C)[Si]1(C(C)C)OCC2OC(n3ccc(=O)[nH]c3=O)C([Se]c3ccccc3)C2O[Si](C(C)C)(C(C)C)O1 (stereo unspecified) | 18.9
CN(N=O)c1nc2c(C(N)=O)ncn2s1 | > 100
CCOc1ccc(NC(=O)C(=O)Nn2c(N)nnc2N)cc1 | > 100
CC(C)(C)OC(=O)N1CCCC1C(=O)NC(c1ccccc1)c1ccccc1 (stereo unspecified) | > 100
O=C(NCCN1CCCCC1)c1cccc(I)c1 | > 100
COC(=O)[C@@](NC(=O)OCc1ccccc1)([C@H](C)O)C(F)(F)F | > 100
Cc1[nH]c(-c2ccccc2)c2nc(N(C)C)oc(=O)c12 | > 100
CC(C)(C)O/N=C/c1cc(NC(=S)c2ccsc2)ccc1Cl | 24.9
O=C1Cc2cn[nH]c2-c2ccccc2N1 | > 100
O=CNc1ccccc1OCCOc1ccccc1NC=O | > 100
C=CCN1CCC(c2cc(C(=O)OCC)[nH]c2-c2cc(C)no2)C1=O (stereo unspecified) | > 100
Cc1cc(NS(=O)(=O)c2ccc(N=[N+]([O-])c3ccc(S(=O)(=O)Nc4cc(C)on4)cc3)cc2)no1 | > 100
Cc1c(/C=N/NC(=S)N2CCCCC2)c(=O)n(-c2ccccc2)n1C | > 100
COc1ccc(-c2nc(Nc3ccccc3)sc2Cc2sc(Nc3ccccc3)nc2-c2ccc(OC)cc2)cc1 | > 100
Cc1ccc(S(=O)(=O)N2CCNCCN(S(=O)(=O)c3ccc(C)cc3)CCNCC2)cc1 | 47
Cc1sc2nc3n(c(=O)c2c1C)N=CN(c1ccc(Cl)cc1)C3 | > 100

The compounds below were run on KM12 colon (assay: NCI anticancer screen, dose series, 48 h).

SMILES | TGI [µM]
O=C(NCCNCCNC(=O)c1cc(-c2ccccc2)nc2ccccc12)c1cc(-c2ccccc2)nc2ccccc12 | 4.03
COc1cc2cc(C(=O)N3CC(CCl)c4ccc([N+](C)(C)Cc5ccccc5[N+](=O)[O-])cc43)[nH]c2c(OC)c1OC (stereo unspecified) | 10.2
CC(Cn1c2c(c3cc(O)ccc31)CCc1ccc(O)cc1-2)N(C)C (stereo unspecified) | 29.9
CC1=NN(c2nc(N)nc(/C(C#N)=C\c3ccc(-c4ccc([N+](=O)[O-])cc4)o3)n2)C(C)(C)C1 | > 100
CCOC(=O)c1nc2ccc(C(F)(F)F)cc2nc1Nc1ccc(OC)cc1 | > 100
COc1ccc2nc3ccc(OC)cc3c(SCCCl)c2c1 | > 71
CC(=O)[C@H]1[C@H](O)C[C@@]2(C)[C@@H]3CCc4cc(O)c(OC5OC(CO)C(O)C(O)C5O)cc4C3(C)C(=O)C[C@]12C (stereo partly specified) | > 100
CC(C)(O)c1cc2c(cc1C(C)(C)O)-c1ccccc1-2 | > 100
CC(C)[Si]1(C(C)C)OCC2OC(n3ccc(=O)[nH]c3=O)C([Se]c3ccccc3)C2O[Si](C(C)C)(C(C)C)O1 (stereo unspecified) | 6.62
CN(N=O)c1nc2c(C(N)=O)ncn2s1 | > 100
CCOc1ccc(NC(=O)C(=O)Nn2c(N)nnc2N)cc1 | > 100
CC(C)(C)OC(=O)N1CCCC1C(=O)NC(c1ccccc1)c1ccccc1 (stereo unspecified) | > 100
O=C(NCCN1CCCCC1)c1cccc(I)c1 | > 100
COC(=O)[C@@](NC(=O)OCc1ccccc1)([C@H](C)O)C(F)(F)F | > 100
Cc1[nH]c(-c2ccccc2)c2nc(N(C)C)oc(=O)c12 | > 100
CC(C)(C)O/N=C/c1cc(NC(=S)c2ccsc2)ccc1Cl | 23.3
O=C1Cc2cn[nH]c2-c2ccccc2N1 | > 67.3
O=CNc1ccccc1OCCOc1ccccc1NC=O | > 100
C=CCN1CCC(c2cc(C(=O)OCC)[nH]c2-c2cc(C)no2)C1=O (stereo unspecified) | > 100
Cc1c(/C=N/NC(=S)N2CCCCC2)c(=O)n(-c2ccccc2)n1C | > 100
COc1ccc(-c2nc(Nc3ccccc3)sc2Cc2sc(Nc3ccccc3)nc2-c2ccc(OC)cc2)cc1 | > 100
Cc1ccc(S(=O)(=O)N2CCNCCN(S(=O)(=O)c3ccc(C)cc3)CCNCC2)cc1 | 42.1
Cc1sc2nc3n(c(=O)c2c1C)N=CN(c1ccc(Cl)cc1)C3 | > 100

The compounds below were run on SK-MEL-5 melanoma (assay: NCI anticancer screen, dose series, 48 h).

SMILES | TGI [µM]
O=C(NCCNCCNC(=O)c1cc(-c2ccccc2)nc2ccccc12)c1cc(-c2ccccc2)nc2ccccc12 | 3.18
COc1cc2cc(C(=O)N3CC(CCl)c4ccc([N+](C)(C)Cc5ccccc5[N+](=O)[O-])cc43)[nH]c2c(OC)c1OC (stereo unspecified) | 3.3
CC1=NN(c2nc(N)nc(/C(C#N)=C\c3ccc(-c4ccc([N+](=O)[O-])cc4)o3)n2)C(C)(C)C1 | > 100
CCOC(=O)c1nc2ccc(C(F)(F)F)cc2nc1Nc1ccc(OC)cc1 | > 100
COc1ccc2nc3ccc(OC)cc3c(SCCCl)c2c1 | > 100
CC(=O)[C@H]1[C@H](O)C[C@@]2(C)[C@@H]3CCc4cc(O)c(OC5OC(CO)C(O)C(O)C5O)cc4C3(C)C(=O)C[C@]12C (stereo partly specified) | > 100
CC(C)(O)c1cc2c(cc1C(C)(C)O)-c1ccccc1-2 | > 100
CC(C)[Si]1(C(C)C)OCC2OC(n3ccc(=O)[nH]c3=O)C([Se]c3ccccc3)C2O[Si](C(C)C)(C(C)C)O1 (stereo unspecified) | 9.59
CN(N=O)c1nc2c(C(N)=O)ncn2s1 | > 100
CCOc1ccc(NC(=O)C(=O)Nn2c(N)nnc2N)cc1 | > 100
CC(C)(C)OC(=O)N1CCCC1C(=O)NC(c1ccccc1)c1ccccc1 (stereo unspecified) | > 100
O=C(NCCN1CCCCC1)c1cccc(I)c1 | > 100
COC(=O)[C@@](NC(=O)OCc1ccccc1)([C@H](C)O)C(F)(F)F | > 100
Cc1[nH]c(-c2ccccc2)c2nc(N(C)C)oc(=O)c12 | > 100
CC(C)(C)O/N=C/c1cc(NC(=S)c2ccsc2)ccc1Cl | 16.9
O=C1Cc2cn[nH]c2-c2ccccc2N1 | > 59.7
O=CNc1ccccc1OCCOc1ccccc1NC=O | > 100
C=CCN1CCC(c2cc(C(=O)OCC)[nH]c2-c2cc(C)no2)C1=O (stereo unspecified) | > 100
Cc1cc(NS(=O)(=O)c2ccc(N=[N+]([O-])c3ccc(S(=O)(=O)Nc4cc(C)on4)cc3)cc2)no1 | > 100
Cc1c(/C=N/NC(=S)N2CCCCC2)c(=O)n(-c2ccccc2)n1C | > 100
COc1ccc(-c2nc(Nc3ccccc3)sc2Cc2sc(Nc3ccccc3)nc2-c2ccc(OC)cc2)cc1 | > 100
Cc1ccc(S(=O)(=O)N2CCNCCN(S(=O)(=O)c3ccc(C)cc3)CCNCC2)cc1 | 29.9
Cc1sc2nc3n(c(=O)c2c1C)N=CN(c1ccc(Cl)cc1)C3 | > 100

Each compound was assayed on SF-539 CNS (assay: NCI anticancer screen, dose series, 48 h).

SMILES | TGI [µM]
O=C(NCCNCCNC(=O)c1cc(-c2ccccc2)nc2ccccc12)c1cc(-c2ccccc2)nc2ccccc12 | 3.99
COc1cc2cc(C(=O)N3CC(CCl)c4ccc([N+](C)(C)Cc5ccccc5[N+](=O)[O-])cc43)[nH]c2c(OC)c1OC (stereo unspecified) | 5.38
CC(Cn1c2c(c3cc(O)ccc31)CCc1ccc(O)cc1-2)N(C)C (stereo unspecified) | 32.1
CC1=NN(c2nc(N)nc(/C(C#N)=C\c3ccc(-c4ccc([N+](=O)[O-])cc4)o3)n2)C(C)(C)C1 | > 100
CCOC(=O)c1nc2ccc(C(F)(F)F)cc2nc1Nc1ccc(OC)cc1 | 90.1
COc1ccc2nc3ccc(OC)cc3c(SCCCl)c2c1 | > 50.5
CC(=O)[C@H]1[C@H](O)C[C@@]2(C)[C@@H]3CCc4cc(O)c(OC5OC(CO)C(O)C(O)C5O)cc4C3(C)C(=O)C[C@]12C (stereo partly specified) | > 100
CC(C)(O)c1cc2c(cc1C(C)(C)O)-c1ccccc1-2 | > 100
CC(C)[Si]1(C(C)C)OCC2OC(n3ccc(=O)[nH]c3=O)C([Se]c3ccccc3)C2O[Si](C(C)C)(C(C)C)O1 (stereo unspecified) | 20.7
CN(N=O)c1nc2c(C(N)=O)ncn2s1 | > 100
CCOc1ccc(NC(=O)C(=O)Nn2c(N)nnc2N)cc1 | > 100
CC(C)(C)OC(=O)N1CCCC1C(=O)NC(c1ccccc1)c1ccccc1 (stereo unspecified) | > 100
O=C(NCCN1CCCCC1)c1cccc(I)c1 | > 100
Cc1[nH]c(-c2ccccc2)c2nc(N(C)C)oc(=O)c12 | > 100
CC(C)(C)O/N=C/c1cc(NC(=S)c2ccsc2)ccc1Cl | 37
O=C1Cc2cn[nH]c2-c2ccccc2N1 | > 100
O=CNc1ccccc1OCCOc1ccccc1NC=O | > 100
C=CCN1CCC(c2cc(C(=O)OCC)[nH]c2-c2cc(C)no2)C1=O (stereo unspecified) | > 100
Cc1cc(NS(=O)(=O)c2ccc(N=[N+]([O-])c3ccc(S(=O)(=O)Nc4cc(C)on4)cc3)cc2)no1 | > 100
Cc1c(/C=N/NC(=S)N2CCCCC2)c(=O)n(-c2ccccc2)n1C | > 100
COc1ccc(-c2nc(Nc3ccccc3)sc2Cc2sc(Nc3ccccc3)nc2-c2ccc(OC)cc2)cc1 | > 100
Cc1ccc(S(=O)(=O)N2CCNCCN(S(=O)(=O)c3ccc(C)cc3)CCNCC2)cc1 | 34.7
